# Patent US12440495B2, “Combination therapy for treatment of myeloproliferative neoplasms” (Incyte Corporation, priority 2020, dated 2025)
# Like-named read-outs stand apart in the source and are kept apart here.
# Legend:
# [1] = test system: MPLW515L expressing bone marrow; experiment: MPLW515L mouse model of MPN; conditions: Compound 1 10 mg/kg QD; for spleen size / white blood cell count: ruxolitinib 60 mg/kg BID, or both, oral, 14 days
# myelofibrosis [2] = experiment: Clinical efficacy in myelofibrosis participants (NCT04279847); assay type: in vivo, human
# Protocol: This is a Phase 1, open-label, 2-part study of Compound 1 as monotherapy in participants with relapsed or refractory myelofibrosis (for further details see “Safety and Tolerability Study of INCB057643 in Participants With Myelofibrosis”, ClinicalTrials.gov Identifier: NCT04279847, which is incorporated herein by reference in its entirety). INCB057643 is also referred to as Compound 1 in the present disclosure. […] Participants will receive 4 mg QD of Compound 1 on a continuous basis.
# A first participant and a second participant had relapsed myelofibrosis which was treated with Compound 1 monotherapy. A third participant was being treated with single-agent ruxolitinib but having suboptimal responses.
# SET-2 cells = experiment: SET-2 xenograft model; conditions: for tumor growth inhibition: Compound 1 10 mg/kg QD, or both, oral; for Fa (tumor growth inhibition level), SET-2: table head: ruxolitinib 60 mg/kg BID, Compound 1 10 mg/kg QD, combination
# [3] = Treatment-emergent adverse events and exposure-safety analysis, Compound 1 monotherapy; assay type: in vivo, human; conditions: for predicted probability of hyperglycemia incidence: from AUC-hyperglycemia relationship; for AUC: human, plasma, oral
# Protocol: The selected clinical safety endpoints as deemed appropriate (eg, frequently occurring TEAEs (treatment-emergent adverse events), incident rate >20% for all AEs (adverse events) and clinically notable adverse events) were used to evaluate exposure-safety relationships. The safety data from a total of […] participants (including both solid tumors and hematologic malignancies) receiving monotherapy treatment of Compound 1 (n=10 at 8 mg, n=89 at 12 mg, and n=8 at 16 mg) in Parts 1 and 2 were used for analysis.
# No statistically significant correlation was identified for steady-state Compound 1 AUC and any TEAEs or clinically notable AEs evaluated in this analysis, except hyperglycemia (p-value<0.05). […] Lack of correlation between Compound 1 AUCss.0-24 and TEAEs could be due to the narrow dose range (8, 12, or 16 mg) explored in this study and small sample sizes in the 8-mg and 16-mg groups of the study (the majority of participants received 12 mg).
# [4] = Clinical pharmacokinetics of Compound 1 monotherapy, Phase 1/2, advanced malignancies; assay type: in vivo, human
# Protocol: The clinical PK of Compound 1 in participants with advanced malignancies (solid and hematologic malignancies) were evaluated in a Phase 1/2, open-label, dose-escalation/dose-expansion, safety and tolerability study. Participants received continuous QD doses of Compound 1. As of the data cutoff date (23 Sep. 2019), 25, 101, and 8 participants who received 8 mg, 12 mg, and 16 mg, respectively, across Part 1 and Part 2 (Compound 1 treated as monotherapy) have been assessed for PK. The PK parameters of parent Compound 1 are summarized in Table 2 and Table 3 (see FIG. 5). Table 2 presents a summary of Compound 1 pharmacokinetic parameters for Compound 1 as monotherapy (part 1 and 2) at cycle 1 day 1. Table 3 presents a summary of Compound 1 pharmacokinetic parameters for Compound 1 as monotherapy (part 1 and 2) at steady-state (cycle 1 day 8).
# Blood samples for the determination of plasma concentrations of Compound 1 in Parts 1 and 2 were collected at predose on Cycle 1 Day 1, Cycle 1 Day 2, and Cycle 1 Day 8, and at 0.5, 1, 2, 4, 6, and 8 hours on Cycle 1 Day 1 and Cycle 1 Day 8. The plasma samples of Compound 1 were assayed by a validated LC-MS/MS method.
# [5] = test system: cMyc, a BRD4 target gene, in KMS12BM cells; experiment: Ex vivo pharmacodynamic spiked cell assay, cMyc protein in KMS12BM cells in participant plasma; assay type: cell-based, human; conditions: for inhibition of cMyc at trough: Cycle 1 Day 8 predose; for average cMyc inhibition at steady state: Day 8, predose to 8 hours
# Protocol: Pharmacodynamic analysis was performed using an ex vivo assay measuring protein levels of cMyc, a BRD4 target gene, in KMS12BM cells, which were spiked into participant plasma samples collected at predose and various postdose timepoints. […] The average cMyc inhibition at steady state (Day 8, from predose to 8 hours) was 30%, 44%, and 65% for the dose of 8 mg (n=11), 12 mg (n=51), and 16 mg (n=7), respectively. […] Inhibition of cMyc was reduced to <10% at trough (Cycle 1 Day 8 predose) in the 8-mg and 12-mg cohorts and ˜30% in the 16-mg cohort.
# HEL cells = experiment: JAK2 V617F expressing HEL xenograft model of erythroleukemia; assay type: in vivo; conditions: 14 days
# Protocol: For efficacy studies, measurements of tumors were taken every 2 to 3 days using a digital caliper. Tumor volumes were calculated using the formula: Volume=(length×width2)/2 where width was the smaller dimension. Body weights were also monitored.
# Animals were sacrificed (1) at end of study, (2) if tumor size reached 10% of total body weight, or (3) if 20% of body weight is lost.
# Statistical analyses were performed using Prism Graphpad software. All comparisons were done using 2-way ANOVA with p<0.05 deemed significant.
# Female SCID mice were subcutaneously inoculated with 10^7 HEL cells in matrigel. When tumors reached approximately 160 mm^3, mice (n=10 per group) were dosed orally with Compound 1 for 14 days as follows: • 1. BID at either 1 or 3 mg/kg, or vehicle control • 2. QD at 3, 10, or 30 mg/kg
# myelofibrosis [6] = conditions: ruxolitinib monotherapy in clinical trials; cited from earlier work
# [7] = ruxolitinib 60 mg/kg BID, combination
# [8] = ruxolitinib 30 mg/kg BID, 14 days
# [9] = monotherapy 8, 12 or 16 mg, all grades and causality
smiles,measurement,setting,value
"CN1C(=O)C(C)(C)Oc2c(-c3cn(C)c(=O)c4[nH]ccc34)cc(S(C)(=O)=O)cc21 [Compound 1, 2,2,4-trimethyl-8-(6-methyl-7-oxo-6,7-dihydro-1H-pyrrolo[2,3-c]pyridin-4-yl)-6-(methylsulfonyl)-2H-1,4-benzoxazin-3(4H)-one]",spleen size,[1],able to reduce spleen size
same,white blood cell count,[1],able to slow the expansion of white blood cells
same,"Fa (fraction affected, change vs vehicle), MPL SPL",[1]; [7],0.5558
same,MPL SPL (sizes of the spleens),[1]; [7],0.3611 grams
same,spleen length reduction by spleen palpation,"myelofibrosis [2]; first participant, monotherapy 12 mg QD, nadir vs baseline",92.5%
same,clinical outcome,"myelofibrosis [2]; second participant, monotherapy 8 mg QD, on study 24 days",only disease progression
same,tumor growth inhibition,SET-2 cells; [8],significantly inhibited tumor growth
same,"Fa (tumor growth inhibition level), SET-2",SET-2 cells,0.24
same,predicted probability of hyperglycemia incidence,[3]; 2 mg,8.0%
same,predicted probability of hyperglycemia incidence,[3]; 4 mg,9.2%
same,"AUCss,0-24, fourth quartile","[3]; FIG. 8, monotherapy 8-16 mg QD",3.61 µM·h
same,"AUCss,0-24, second quartile","[3]; FIG. 8, monotherapy 8-16 mg QD",2.07 µM·h
same,"AUCss,0-24, third quartile","[3]; FIG. 8, monotherapy 8-16 mg QD",2.62 µM·h
same,AUC,"[3]; 12 mg, participant 1011, Grade 4 gastrointestinal hemorrhage, 12 mg QD, read-out: AUCss,0-24 of individual participant",3.47 µM·h
same,AUC,"[3]; 12 mg, participant 9002, Grade 4 gastrointestinal hemorrhage, 12 mg QD, read-out: AUCss,0-24 of individual participant",3.61 µM·h
same,AUC,"[3]; 12 mg, participant 12005, Grade 3 INR increased, 12 mg QD, concomitant warfarin, read-out: AUCss,0-24 of individual participant",6.99 µM·h
same,AUC,"[3]; 16 mg, participant 16001, Grade 3 INR increased, 16 mg QD, concomitant warfarin, read-out: AUCss,0-24 of individual participant",9.77 µM·h
same,AUC,"[3]; FIG. 8, monotherapy 8-16 mg QD, read-out: AUCss,0-24, first quartile",0.893 to 2.04 µM·h
same,clinically notable AE incidence: INR increased,"[3]; monotherapy 8, 12 or 16 mg",8.5%
same,clinically notable AE incidence: epistaxis,"[3]; monotherapy 8, 12 or 16 mg",9.9%
same,clinically notable AE incidence: gastrointestinal hemorrhage,"[3]; monotherapy 8, 12 or 16 mg",1.9%
same,clinically notable AE incidence: hyperglycemia,"[3]; monotherapy 8, 12 or 16 mg",17.4%
same,TEAE incidence: anemia,[3]; [9],27.3%
same,TEAE incidence: constipation,[3]; [9],20.7%
same,TEAE incidence: decreased appetite,[3]; [9],35.5%
same,TEAE incidence: diarrhea,[3]; [9],27.3%
same,TEAE incidence: dysgeusia,[3]; [9],19.8%
same,TEAE incidence: fatigue,[3]; [9],45.5%
same,TEAE incidence: nausea,[3]; [9],47.9%
same,TEAE incidence: thrombocytopenia,[3]; [9],28.9%
same,TEAE incidence: vomiting,[3]; [9],28.1%
same,"AUCss,0-24 of individual participant","[3]; participant 9002, Grade 4 gastrointestinal hemorrhage, 12 mg QD",2.15 µM·h
same,"AUCss,0-24 of individual participant","[3]; participant 16001, Grade 3 INR increased, 16 mg QD, concomitant warfarin",9.79 µM·h
same,"Tmax, median","[4]; 8 mg QD, cycle 1 day 1, N = 12",2.00 h
same,dose proportionality of steady-state Cmax and AUC0-24,[4]; 8 to 16 mg QD,proportional to dose
same,"steady-state oral clearance, geometric mean CLss/F",[4]; 8 to 16 mg QD,9.92 to 10.7 L/h
same,AUC(0-t),"[4]; human, plasma, oral, 2 mg, 2 mg QD, linear PK extrapolation from 12 mg QD, read-out: estimated steady-state AUC0-24",0.457 µM·h
same,AUC(0-t),"[4]; human, plasma, oral, 4 mg, 4 mg QD, linear PK extrapolation from 12 mg QD, read-out: estimated steady-state AUC0-24",0.913 µM·h
same,AUC(0-t),"[4]; human, plasma, oral, 8 mg, 8 mg QD, cycle 1 day 1, N = 12, read-out: AUClast, geometric mean (CV %)",2.09 µM·h
same,AUC(0-t),"[4]; human, plasma, oral, 8 mg, 8 mg QD, cycle 1 day 1, N = 12, read-out: AUClast, mean ± SD",2.31 ± 1.12 µM·h
same,Cmax,"[4]; human, plasma, oral, 8 mg, 8 mg QD, cycle 1 day 1, N = 12, read-out: Cmax, geometric mean (CV %)",188 nM
same,Cmax,"[4]; human, plasma, oral, 8 mg, 8 mg QD, cycle 1 day 1, N = 12, read-out: Cmax, mean ± SD",201 ± 83.6 nM
same,AUC(0-t),"[4]; human, plasma, oral, 12 mg, 12 mg QD, cycle 1 day 1, N = 99, read-out: AUClast, geometric mean (CV %)",2.55 µM·h
same,AUC(0-t),"[4]; human, plasma, oral, 12 mg, 12 mg QD, cycle 1 day 1, N = 99, read-out: AUClast, mean ± SD",2.74 ± 1.09 µM·h
same,Cmax,"[4]; human, plasma, oral, 12 mg, 12 mg QD, cycle 1 day 1, N = 99, read-out: Cmax, geometric mean (CV %)",249 nM
same,Cmax,"[4]; human, plasma, oral, 12 mg, 12 mg QD, cycle 1 day 1, N = 99, read-out: Cmax, mean ± SD",266 ± 94.7 nM
same,AUC(0-t),"[4]; human, plasma, oral, 12 mg, 12 mg QD, read-out: steady-state AUC0-24, geometric mean",2.74 µM·h
same,Cmax,"[4]; human, plasma, oral, 12 mg, 12 mg QD, read-out: steady-state Cmax, geometric mean",272 nM
same,AUC(0-t),"[4]; human, plasma, oral, 16 mg, 16 mg QD, cycle 1 day 1, N = 7, read-out: AUClast, geometric mean (CV %)",3.21 µM·h
same,AUC(0-t),"[4]; human, plasma, oral, 16 mg, 16 mg QD, cycle 1 day 1, N = 7, read-out: AUClast, mean ± SD",3.37 ± 1.06 µM·h
same,Cmax,"[4]; human, plasma, oral, 16 mg, 16 mg QD, cycle 1 day 1, N = 7, read-out: Cmax, geometric mean (CV %)",329 nM
same,Cmax,"[4]; human, plasma, oral, 16 mg, 16 mg QD, cycle 1 day 1, N = 7, read-out: Cmax, mean ± SD",343 ± 93.2 nM
same,Tmax,"[4]; human, plasma, oral, 12 mg QD, cycle 1 day 1, N = 99, read-out: Tmax, median",0.5 h
same,half-life,"[4]; human, plasma, oral, 12 mg QD, steady-state, read-out: t1/2, geometric mean (converted)",9.17 h
same,AUC,"[4]; human, plasma, oral, 16 mg QD, read-out: steady-state AUC, geometric mean",3.61 µM·h
same,Vd/F,"[4]; human, plasma, oral, 8 to 16 mg QD, read-out: volume of distribution, geometric mean Vz/F",138 to 197 L
same,Tmax,"[4]; human, plasma, oral, multiple-dose, fasted state, 8 to 16 mg QD, read-out: median Tmax",1 to 2 h
same,half-life,"[4]; human, plasma, oral, multiple-dose, not dose-dependent, read-out: steady-state geometric mean half-life (converted)",~10 h
same,accumulation of exposure (steady-state AUC0-24 vs first dose AUC0-24),[4]; once daily dosing,< 10%
same,time to steady-state (predicted),"[4]; once daily dosing, based on effective half-life of 10 hours",2 days
same,inhibition of cMyc at trough,[5]; 8 mg,< 10%
same,average cMyc inhibition at steady state,"[5]; 8 mg, n=11",30%
same,inhibition of cMyc at trough,[5]; 12 mg,< 10%
same,average cMyc inhibition at steady state,"[5]; 12 mg, n=51",44%
same,inhibition of cMyc at trough,[5]; 16 mg,~30%
same,average cMyc inhibition at steady state,"[5]; 16 mg, n=7",65%
same,IC50,"[5]; Homo sapiens, KMS-12-BM, 70 participants, nonlinear regression, plasma concentration, read-out: IC50 (ex vivo, composite PK PD curve)",202 nM
same,tumor regression,HEL cells; 30 mg/kg QD oral,one statistical tumor regression
same,tolerability (body weight loss),"HEL cells; all doses, oral",All doses were tolerated
same,tumor growth (mean tumor volume) vs vehicle,"HEL cells; oral, 1 or 3 mg/kg BID, 3, 10 or 30 mg/kg QD, p<0.02 each group",inhibited tumor growth in a dose-related manner
"N#CC[C@H](C1CCCC1)n1cc(-c2ncnc3[nH]ccc23)cn1 [ruxolitinib, (3R)-3-cyclopentyl-3-[4-(7H-pyrrolo[2,3-d]pyrimidin-4-yl)-1H-pyrazol-1-yl]propanenitrile]",reduction in spleen size,myelofibrosis [6],about 35%
same,spleen size,[1],able to reduce spleen size
same,white blood cell count,[1],more profound effect on white blood cell count reduction than Compound 1
same,tumor growth inhibition,SET-2 cells; [8],significantly inhibited tumor growth
same,tumor growth inhibition,"SET-2 cells; ruxolitinib 60 mg/kg BID, 11 days",significant tumor growth inhibition
same,"Fa (tumor growth inhibition level), SET-2",SET-2 cells,0.44
